Patent US5189050A, “Fermentation analogs of Virginiamycin M1 to treat panic and anxiety disorder” (Merck & Co., Inc., priority 1991, dated 1993)

Columns and labels:
CCK-A receptors = details: cited from earlier work
Pancreatic CCK Receptor = target: T1, Pancreatic CCK Receptor (Rattus norvegicus, UniProt P30551); test: Pancreatic cholecystokinin receptor binding (125I-CCK-8, rat pancreas membranes); details: for IC50: Pancreatic CCK Receptor Binding, rat pancreas, 125I-CCK-8, 37° C., 30 minutes; for effect on the 125I-CCK receptor binding assay: added protease inhibitors
T1 construct: homogenzing a gram of fresh rat pancreas tissue; from tissue; host or cells: fresh rat pancreas membranes
T1 sequence (P30551 1-444): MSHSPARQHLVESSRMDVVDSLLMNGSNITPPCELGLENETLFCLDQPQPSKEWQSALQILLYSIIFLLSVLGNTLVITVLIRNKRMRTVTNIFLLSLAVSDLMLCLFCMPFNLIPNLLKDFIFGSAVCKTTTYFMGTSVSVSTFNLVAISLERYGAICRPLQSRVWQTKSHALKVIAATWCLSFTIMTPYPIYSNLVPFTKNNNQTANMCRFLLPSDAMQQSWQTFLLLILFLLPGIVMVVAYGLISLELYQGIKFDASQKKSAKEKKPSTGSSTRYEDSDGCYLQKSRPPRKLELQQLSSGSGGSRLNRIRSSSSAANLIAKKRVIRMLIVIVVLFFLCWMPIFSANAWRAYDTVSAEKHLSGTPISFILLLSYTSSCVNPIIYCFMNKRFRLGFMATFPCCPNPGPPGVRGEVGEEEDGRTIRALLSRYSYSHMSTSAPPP
Description: Pancreatic Cholecystokinin Receptor Binding Assay
Radiolabeled CCK-8 was purchased from New England Nuclear as ^125 I-CCK-8. Receptor binding was performed according to Innis and Snyder Proc. Natl. Acad. Sci., 77, 6917 (1980), with the minor modification of adding the additional protease inhibitors, phenylmethane sulfonyl fluoride (PMSF) and o-phenanthroline, which have no effect on the ^125 I-CCK receptor binding assay. All assays were performed in triplicate. Pancreatic receptor membranes were prepared by homogenzing a gram of fresh rat pancreas tissue in 30 ml TRIS-HCl (50 mM), pH 7.7 using a Brinkman polytron PT10 (Brinkman). The homogenate was washed twice and collected by centrifugation at 48,000× g at 4° C. for 10 minutes. The membranes were resuspended in assay buffer consisting of 5 mM dithiothieitol, 0.1 mM bacitiacin, 5 mM MgCl2 "H2 O, 0.2% heat denatured BSA, 1.2 mM PMSF and 0.5 mM O-phenanthroline at a concentration of 100 ml per gram of pancreas. […] The reaction mixtures were mixed briefly and placed in a 37° C. water bath with gentle shaking for 30 minutes. The reaction mixtures were then diluted with 4 ml of ice-cold TRIS buffer, pH 7.7, containing 1 mg/ml bovine serum albumin and immediately filtered in Watman G F/B filters. The filters were washed with 3×4 ml of the same buffer and the radioactivity associated with the filters was counted in a Beckman 5500 gamma counter. Broths were prepared by adding two volumes of acetone to original broth; supernatants were freeze dried after centrifugation at 1500 g for 10 minutes. The dried samples were then brought up in methanol/H2 O (1:1) and ready for assay.

gram-positive bacteria = details: cited from earlier work
CCK-B receptors = details: cited from earlier work
[1] = crude rat brain synaptosomal fraction (title of cited paper); cited from earlier work
stomach gastrin receptor = details: cited from earlier work

Row | IC50 (Pancreatic CCK Receptor) [µM] | Compound | affinity for CCK-A receptors (CCK-A receptors) | also measured
1 | – | gastrin | lower affinity | –
2 | – | CSCC[C@H](NC(=O)[C@H](Cc1ccc(O)cc1)NC(=O)[C@@H](N)CC(=O)O)C(=O)NCC(=O)N[C@@H](Cc1c[nH]c2ccccc12)C(=O)N[C@@H](CCSC)C(=O)N[C@@H](CC(=O)O)C(=O)N[C@@H](Cc1ccccc1)C(N)=O [CCK-8d] | lower affinity | –
3 | > 100 | CC1=C\[C@@H](O)CC(=O)Cc2nc(co2)C(=O)N2CCC=C2C(=O)O[C@H](C(C)C)[C@H](C)/C=C/C(=O)NC\C=C\1 [Virginiamycin M1] | – | antibacterial specificity and action (gram-positive bacteria): generally specific for gram-positive bacteria and prevent cell multiplication
4 | – | CSCC[C@H](NC(=O)[C@H](Cc1c[nH]c2ccccc12)NC(=O)CCNC(=O)OC(C)(C)C)C(=O)N[C@@H](CC(=O)O)C(=O)N[C@@H](Cc1ccccc1)C(N)=O [pentagastrin] | – | affinity for CCK-B receptors (CCK-B receptors): high affinity
5 | > 10 | CC1=C\C=C\[C@@H](O)Cc2nc(co2)C(=O)N2CCC=C2C(=O)O[C@H](C(C)C)[C@H](C)/C=C/C(=O)NC\C=C\1 [Compound I] | – | –
6 | – | CSCC[C@H](NC(=O)[C@H](Cc1ccc(OS(=O)(=O)O)cc1)NC(=O)[C@@H](N)CC(=O)O)C(=O)NCC(=O)N[C@@H](Cc1c[nH]c2ccccc12)C(=O)N[C@@H](CCSC)C(=O)N[C@@H](CC(=O)O)C(=O)N[C@@H](Cc1ccccc1)C(N)=O [CCK-8s, H-Asp-Tyr(SO3 H)-Met-Gly-Trp-Met-Asp-Phe-NH2] | high affinity | half-life [1]: less than 1 hour; affinity for CCK-B receptors (CCK-B receptors): high affinity
7 | – | c1cnc2c(c1)ccc1cccnc12 [o-phenanthroline] | – | effect on the 125I-CCK receptor binding assay (Pancreatic CCK Receptor): no effect
8 | > 10 | CC1=C\C=C\[C@H](O)Cc2nc(co2)C(=O)N2CCC=C2C(=O)O[C@H](C(C)C)[C@H](C)/C=C/C(=O)NC\C=C\1 [Compound II] | – | –
9 | – | O=S(=O)(F)Cc1ccccc1 [phenylmethane sulfonyl fluoride (PMSF), phenylmethane sulfonyl fluoride] | – | effect on the 125I-CCK receptor binding assay (Pancreatic CCK Receptor): no effect
10 | > 10 | CC1=C\C=C\C(=O)Cc2nc(co2)C(=O)N2CCC=C2C(=O)O[C@H](C(C)C)[C@H](C)/C=C/C(=O)NC\C=C\1 [Compound III] | – | –
11 | – | CSCC[C@H](NC(=O)[C@@H](N)Cc1c[nH]c2ccccc12)C(=O)N[C@@H](CC(=O)O)C(=O)N[C@@H](Cc1ccccc1)C(N)=O [CCK-4] | lower affinity | potency at stomach gastrin receptor (stomach gastrin receptor): minimum fully potent CCK sequence; affinity for CCK-B receptors (CCK-B receptors): high affinity
